Results from paper PMC12111156, “Nitazoxanide Analogs: Synthesis, In Vitro Giardicidal Activity, and Effects on Giardia lamblia Metabolic Gene Expression” (International Journal of Molecular Sciences, 2025).

What was measured:
[1] = system: G. lamblia strain ATCC 30957; assay: Viability of Giardia lamblia trophozoite culture (trypan blue count); assay type: cell-based
Description: Viability analysis was performed on G. lamblia strain ATCC 30957 grown in TYI-S-33 medium supplemented with 10% fetal bovine serum (FBS) and an antibiotic. Pre-culture was performed in 16 × 150 mm borosilicate tubes with a medium inoculated with 2 × 10^5 trophozoites and incubated at 37 °C for 48 h. For the recovery of the trophozoites, the vial was incubated in ice for 8 min and centrifuged for 6 min at 2000 rpm. The concentrated trophozoites were suspended in 1 mL of phosphate-buffered saline (PBS), and the number of trophozoites was counted by placing a 1:1 volume ratio of cell culture and trypan blue dye (4 g/L); then, a homogeneous drop of the mixture was taken and placed in the Neubauer chamber, and the total cells were counted.
The curves were plotted for concentrations of 0–50 µM of each compound. The assay was performed by placing 1.5 × 10^5 cells in 1.5 mL microcentrifuge tubes with a supplemented medium and different concentrations of each compound (0–50 µM). The negative control was performed under the same conditions without a compound, and the drugs NTZ and MTZ were used as positive controls. The samples were incubated for 48 h at 37 °C. At the end of the incubation, the cell viability count was performed using the trypan blue technique. The viability calculation was performed following the formula nv/(nv + nm), where nv represents the live cells and nm represents the dead cells; the viability value obtained was expressed as a percentage. The IC50 value of each compound was determined using the IC50 Calculator software (https://www.aatbio.com/tools/ic50-calculator).

[2] = Cytotoxicity, XTT viability assay, Caco-2; conditions: human
Description: (§1) The cytotoxicity assay was performed to evaluate the effect of the selected compounds on human cells. Colon cells were used because they are cell lines like those present in the microenvironment where G. lamblia colonizes, which is the small intestine of the host. The assay was performed using the human cell lines Caco-2 (ATCC HTB-37) and HT-29 (ATCC […]). Cell viability was determined using the Cell Proliferation Kit II (XTT, St. Louis, MO, EE. UU.). A cell suspension of 2 × 10^3 cells/mL was prepared in Dulbecco’s modified Eagle’s medium (DMEM) supplemented with 10% inactivated fetal bovine serum and an antibiotic (1% penicillin/streptomycin, 5000 U/mL, in a volume of 100 µL). The suspension was added to a 96-well plate. The plates were incubated for 24 h at 37 °C in a 5% CO2 atmosphere. […] The cells were incubated for 48 h at 37 °C in a 5% CO2 atmosphere. Cell viability was determined using the following steps. The medium in each well was replaced with 100 µL of fresh medium, and 50 µL of XTT labeling mix was added per well. The reaction was incubated for four hours at 37 °C and 5% CO2. After incubation, the absorbance of the samples on the plate was measured at 450 nm. Each compound was assayed in triplicate in three independent experiments. CC50 values (μM) were determined using the nonlinear regression function of GraphPad Prism version 8 for Windows.

[3] = system: G6PD::6PGL enzyme of G. lamblia; conditions: cited from earlier work
G. lamblia trophozoites = assay: Cell damage by transmission electron microscopy; assay type: cell-based, Giardia lamblia; conditions: IC50 concentration, 24 h
Description: The trophozoites were incubated for 24 h at 37 °C and then collected by cooling them in an ice bath for 10 min and centrifuging at 2000 rpm for 7 min. The samples were sent for preparation and observation at the Instituto de Fisiología Celular, UNAM. The analysis was performed using a JEOL-JEM-1200 transmission electron microscope (JEOL LTD, Tokyo, Japan) equipped with a GATAN CCD camera at the Imaging Unit of the Institute of Cellular Physiology, UNAM.

Caco-2 and HT-29 cells = assay: Cytotoxicity, XTT viability assay, stated for both cell lines; assay type: cell-based, human; conditions: 125 µM, 48 h
Description: The suspension was added to a 96-well plate. […] Cell viability was determined using the following steps.

HT-29 cells = assay: Cytotoxicity, XTT viability assay, HT-29; conditions: CC50 HT-29 / IC50 trophozoite ATCC strain 30957
Description: as §1

[4] = Cytotoxicity, XTT viability assay, HT-29; conditions: human, HT-29 cells, CC50 HT-29, 48 h, XTT
Description: as §1

[5] = system: G. lamblia strain resistant to nitazoxanide; assay: Giardicidal activity in nitazoxanide-resistant strain (trypan blue count); assay type: cell-based; conditions: Giardia duodenalis, 48 h, read-out: IC50 G. lamblia (NTZ Resistant)
Description: A pre-culture at confluence was used as a starting point, and a concentration–response curve was plotted using an initial compound concentration of 25 μM in a final volume of 1.5 mL of TYI-S-33 medium, followed by serial dilutions of the compound. Each treatment was inoculated with 1.5 × 10^5 trophozoites and incubated for 48 h at 37 °C. At the end of the incubation, the number of trophozoites was determined using the trypan blue assay and by counting in a Neubauer chamber. The viability percentage at each compound concentration was calculated using the negative control as a reference.

SMILES: CCCCC(=O)Nc1ncc([N+](=O)[O-])s1 [FLP-2, N-(5-Nitro-1,3-thiazol-2-yl)pentanamide]
- Inhibition of growth of G. lamblia parasite culture ([1]; concentration not given): more than 98%
- Relative potency compared with NTZ ([1]; ratio of IC50 values, ATCC strain): 1.2 times
- selectivity ratio at 48 h ([2]; Caco-2): 884
- CC50 at 48 h ([2]; Caco-2, CC50 Caco-2, 48 h, XTT): 3.18 mM
- Inhibition of the G6PD::6PGL enzyme (in words) [3]: inhibitors of the G6PD enzyme
- Ultrastructural effect on trophozoites (TEM) (G. lamblia trophozoites): significant morphological alterations
- Decrease of cell viability (Caco-2 and HT-29 cells): up to 20%
- Selectivity index (CC50/IC50) HT-29 (HT-29 cells): 531
- CC50 at 48 h [4]: 1.91 mM
- IC50 [5]: 370 nM
